Assay results reported in patent publication US4348410A, “Cyclohexane carboxylic acid derivatives” (Nippon Chemiphar Co., Ltd., priority 1979, dated 1982).
Like-named read-outs stand apart in the source and are kept apart here.

Experiments:
chymotrypsin = chymotrypsin (Bos taurus, UniProt P00766); assay: Inhibitory effects on chymotrypsin (hydrolysis of N-acetyl-L-tyrosine ethyl ester); type: biochemical; conditions: 37° C., 10 minutes; concentration not given
Procedure: The compounds of the formula (I) have excellent inhibitory effects on protease. The inhibitory effects were determined by the following methods: Inhibitory effects on the compounds of chymotrypsin were determined according to the method described by M. […] In particular, inhibitory effects of the compounds on hydrolysis of N-acetyl-L-tyrosine ethyl ester by chymotrypsin were examined (incubated at 37° C. for 10 minutes).

Acute toxicity = conditions: mouse, in vivo, po, 7 days observation
Procedure: […]. The test drugs were given orally using gastric sonde. […] The LD50 value was calculated by the Probit method (C.I. Bliss).

[1] = tested on: cysteamine-induced duodenal ulcers; assay: Duodenal ulcers (cysteamine-induced); type: in vivo, Female Sprague-Dawley strain rats
Procedure: Female Sprague-Dawley strain rats, weighing about 200 g were deprived of food for 24 hours prior to experiment. Cysteamine 400 mg/kg was given subcutaneously once to the rats. The animals were provided food and libitum from the 7 hours later. The test drug was given orally as aqueous suspension after 7 hours, the administration of cysteamine, then daily×4. On the next morning of the last administration, the animals were sacrificed under ether anesthesia. The ulcer area (mm^2) was measured and described as ulcer index.

N=C(N)NC[C@H]1CC[C@H](C(=O)Oc2ccccc2C(=O)OCc2ccccc2)CC1 [Compound 1]
Inhibition (%) Chymotrypsin (chymotrypsin): 100%
LD50 at 168 h (Acute toxicity; female mice, read-out: LD50 Female): > 8000 mg/kg
LD50 at 168 h (Acute toxicity; male mice, read-out: LD50 male): 7600 mg/kg
Inhibition (%) ([1]; 250 mg/kg orally): 72.1%
Ulcer Index (mm^2) ([1]; 250 mg/kg orally): 22.5 ± 3.9 mm^2
Inhibition (%) ([1]; 500 mg/kg orally): 85.5%
Ulcer Index (mm^2) ([1]; 500 mg/kg orally): 11.7 ± 3.6 mm^2
